The text below walks through data of patent US9663464B2, “Carbazole derivatives acting on 5-HT7 receptor” (KOREA INSTITUTE OF SCIENCE AND TECHNOLOGY, priority 2015, dated 2017).

Experiment [1] has as its target T1, human gene recombinant 5-HT7 receptor expressed in CHO cells (Homo sapiens, UniProt P34969).
T1 construct: expressed in transfected cells; host or cells: CHO cells (membrane preparation)
The experiment is described as follows: Binding affinity for the 5-HT7 serotonin receptor ([3H]LSD radioligand). How it is done:
In this example, the human gene recombinant 5-HT7 receptor expressed in CHO cells was used. 1 nM [^3H]LSD, 5-HT7 receptor membrane (15 μg/well), a test drug, 10 mM MgCl2, 50 mM Tris-HCl buffer (pH 7.4) containing 0.1 mM EDTA, etc. were added to a vessel until the final volume reached 0.25 ml. The test drug was used at various concentrations. The mixture was cultured at 25° C. for 90 min. The culture was rapidly filtered through a Whatman GF/C glass fiber filter, which had been previously wetted with 0.3% polyethyleneimine using a Brandel harvester, to quench the reaction. The reaction mixture was washed with cold 50 mM Tris-HCl buffer. The filter was covered with MeltiLex, sealed in a sample bag, and dried in an oven. Counting was performed using MicroBeta (Wallac) and nonspecific binding was measured in the presence of […]. The K value of the test drug was obtained from nonlinear regression analysis (GraphPad Prism Program, San Diego, USA) of isotherms obtained by repeatedly performing the experiment on the drug at 10-11 stage concentrations in two test tubes (each twice).
The % inhibition values of the inventive compounds having different Y structures at a concentration of 10 μM against the 5-HT7 serotonin receptor were measured. Further, the binding affinity (Ki) values of the inventive compounds having different Y structures at a concentration of 10 μM for the 5-HT7 serotonin receptor were measured.

The next experiment addresses 5-HT1E (Homo sapiens, UniProt P28566). In words: 5-HT1E receptor inhibition (Table 1). Type of experiment: binding.
Another experiment addresses T2, 5-HT2C (Homo sapiens, UniProt P28335).
T2 sequence (P28335 33-458): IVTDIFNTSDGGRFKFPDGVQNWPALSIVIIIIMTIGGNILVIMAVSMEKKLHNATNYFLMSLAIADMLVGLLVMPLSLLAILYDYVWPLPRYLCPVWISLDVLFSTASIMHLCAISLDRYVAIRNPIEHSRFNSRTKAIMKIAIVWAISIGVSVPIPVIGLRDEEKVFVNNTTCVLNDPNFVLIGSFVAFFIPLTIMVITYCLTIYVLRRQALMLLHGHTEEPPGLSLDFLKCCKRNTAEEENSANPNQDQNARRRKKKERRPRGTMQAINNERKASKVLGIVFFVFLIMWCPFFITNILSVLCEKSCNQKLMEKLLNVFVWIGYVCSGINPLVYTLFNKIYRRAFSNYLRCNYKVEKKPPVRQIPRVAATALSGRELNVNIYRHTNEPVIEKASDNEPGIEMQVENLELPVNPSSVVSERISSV
In words: 5-HT2C receptor inhibition/binding (Tables 1-3).

The subject of a further experiment is Rats. In words: Antagonism against migraine: leakage of fluorescent protein (FITC-BSA) from meningeal vessels. Type of experiment: in vivo. The following applies: for protein leakage vs reference value: 5 mg/kg to 20 mg/kg. On the procedure:
It is known that inflammatory proteins leaked from meningeal vessels by 5-HT are implicated in causing migraine. The amount of the proteins leaked in the presence of the compound of Example 2.10 was measured and the preventive effect of the compound on migraine was assessed by a partial modification of the method described in the literature [Rachel A. Spokes, Vicki C. Middlefell, European Journal of Pharmacology (1995) 281, 75-79]. SB-269970, which is known as a 5-HT7 receptor antagonizing compound (J. Med. Chem. (2000) 43, 342-345), was used as a comparative compound. A negative control free of […] was prepared. The fluorescence intensity of the negative control was defined as a reference value. As a positive control, physiological saline was added instead of the compound of Example 2-10.
Rats (350-450 g) were administered urethane (1.5 g/kg) intraperitoneally. 50 mg/kg of a fluorescent protein (FITC-BSA) was administered intravenously through a cannula introduced into the saphenous vein, and 1 μM […] was administered intravenously. SB-269970 and the compound of Example 2.10 were administered intraperitoneally. The cerebral lobes were separated and the meninges were drawn from each rat. The meninges were allowed to stand at 37° C. for 16 h in the presence of physiological saline at pH 11, followed by centrifugation. The supernatant was plated on plates. The fluorescence intensity was measured using a fluorescence leader (excitation wavelength 485 nm, […] wavelength 530 nm) and the meninges were weighed. The fluorescence intensity per mg of the meningeal proteins was calculated.

Another experiment addresses 5-HT6 (Homo sapiens, UniProt P50406). In words: 5-HT6 receptor inhibition/binding (Tables 2-3).
In the next experiment the target is T3, 5-HT1A (Homo sapiens, UniProt P08908).
T3 sequence (P08908 1-422): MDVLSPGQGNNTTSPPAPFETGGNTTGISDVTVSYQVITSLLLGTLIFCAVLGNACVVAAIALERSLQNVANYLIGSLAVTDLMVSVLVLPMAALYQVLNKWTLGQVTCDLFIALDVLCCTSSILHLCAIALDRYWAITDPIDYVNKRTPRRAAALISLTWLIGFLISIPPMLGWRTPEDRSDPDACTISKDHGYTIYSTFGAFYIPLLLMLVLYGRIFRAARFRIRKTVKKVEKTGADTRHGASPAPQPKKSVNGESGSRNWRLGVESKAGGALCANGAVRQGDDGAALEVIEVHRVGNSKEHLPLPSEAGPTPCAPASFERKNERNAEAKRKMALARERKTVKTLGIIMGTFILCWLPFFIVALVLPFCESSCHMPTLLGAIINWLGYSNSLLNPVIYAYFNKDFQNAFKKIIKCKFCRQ
In words: 5-HT1A receptor inhibition (Table 3). Type of experiment: binding.

SMILES strings stand for the structures. Structures can show the parent of a compound that is named as a salt.

T1 sequence (P34969 whole entry): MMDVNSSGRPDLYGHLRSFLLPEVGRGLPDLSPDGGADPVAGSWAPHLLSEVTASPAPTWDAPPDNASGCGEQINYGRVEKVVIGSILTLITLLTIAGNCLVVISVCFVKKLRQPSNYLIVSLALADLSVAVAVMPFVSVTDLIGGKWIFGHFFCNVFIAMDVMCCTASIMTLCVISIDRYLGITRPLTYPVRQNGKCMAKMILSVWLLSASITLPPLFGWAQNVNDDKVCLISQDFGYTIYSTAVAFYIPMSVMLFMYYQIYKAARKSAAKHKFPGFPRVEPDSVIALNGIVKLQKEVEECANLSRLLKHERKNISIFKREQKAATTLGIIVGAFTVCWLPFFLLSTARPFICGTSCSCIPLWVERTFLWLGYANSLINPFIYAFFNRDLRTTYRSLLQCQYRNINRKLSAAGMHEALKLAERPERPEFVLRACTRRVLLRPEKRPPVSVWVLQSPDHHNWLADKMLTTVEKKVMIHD
5-HT1E, sequence (P28566 whole entry, species assumed): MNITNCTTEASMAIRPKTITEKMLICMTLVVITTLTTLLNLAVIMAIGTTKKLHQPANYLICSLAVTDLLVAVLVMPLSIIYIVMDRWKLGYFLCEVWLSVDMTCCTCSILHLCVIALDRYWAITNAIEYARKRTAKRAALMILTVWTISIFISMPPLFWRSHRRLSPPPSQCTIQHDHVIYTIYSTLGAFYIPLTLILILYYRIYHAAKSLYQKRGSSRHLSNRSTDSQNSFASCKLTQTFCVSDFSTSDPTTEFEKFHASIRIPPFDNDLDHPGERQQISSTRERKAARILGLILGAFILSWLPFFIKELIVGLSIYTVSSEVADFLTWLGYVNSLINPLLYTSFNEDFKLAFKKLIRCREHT
5-HT6, sequence (P50406 whole entry, species assumed): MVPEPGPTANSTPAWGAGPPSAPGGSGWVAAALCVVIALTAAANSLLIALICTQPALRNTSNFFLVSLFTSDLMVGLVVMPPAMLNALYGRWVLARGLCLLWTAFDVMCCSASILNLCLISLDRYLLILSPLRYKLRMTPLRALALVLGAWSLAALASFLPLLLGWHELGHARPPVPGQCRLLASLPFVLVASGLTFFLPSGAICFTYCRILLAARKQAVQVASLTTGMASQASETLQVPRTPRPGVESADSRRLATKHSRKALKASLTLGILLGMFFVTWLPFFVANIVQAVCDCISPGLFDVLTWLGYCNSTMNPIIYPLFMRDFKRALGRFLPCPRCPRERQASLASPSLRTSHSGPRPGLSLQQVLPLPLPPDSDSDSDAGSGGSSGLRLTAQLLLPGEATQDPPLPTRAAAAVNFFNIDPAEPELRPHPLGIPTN

Take `CC1CCN(CCCCCC(=O)n2c3ccccc3c3ccccc32)CC1` [Example 2.4, 1-(9H-carbazol-9-yl)-6-(4-methylpiperidin-1-yl)hexan-1-one]: the inhibition at 10 µM is 94.2% in experiment [1], -11.6% against 5-HT1E and 78.5% on 5-HT2C. The Ki on 5-HT2C came to 878 nM. Moreover, the “protein leakage vs reference value” with Rats is listed as “suppressed to a level close to the reference value”.
As for `O=C(CCCCCN1CCC(c2ccccc2)CC1)n1c2ccccc2c2ccccc21` [Example 2.9, 1-(9H-carbazol-9-yl)-6-(4-phenylpiperidin-1-yl)hexan-1-one hydrochloride], the inhibition constant Ki in experiment [1] is 157 nM; at 5-HT2C, 758 nM; on 5-HT6, 373 nM. Besides, the inhibition at 10 µM in experiment [1] is 99.8%; on 5-HT2C, 55.3%; on 5-HT6, 92.2%. Moreover, the “protein leakage vs reference value” in the experiment with Rats was “suppressed to a level close to the reference value”.
`O=C(CCCCCN1CCC(Cc2ccccc2)CC1)n1c2ccccc2c2ccccc21` [Example 2.10, 6-(4-Benzylpiperidin-1-yl)-1-(9H-carbazol-9-yl)hexan-1-one hydrochloride]: the Ki in experiment [1] stood at 252 nM; on 5-HT2C, 683 nM; on 5-HT6, 354 nM. The values for the inhibition at 10 µM (in experiment [1]; on 5-HT2C; on 5-HT6) were 103%, 70.4% and 91.9%, respectively. Also, the “amount of the proteins leaked (meningeal fluorescence intensity) vs reference value” in the experiment with Rats (intraperitoneal, 3 mg/kg) is listed as “effectively suppressed to a level close to the reference value”.
With `O=C(CCCCCN1CCN(c2noc3ccccc23)CC1)n1c2ccccc2c2ccccc21` [Example 2.14, 6-(4-Benzo[d]isoxazol-3-yl)piperazin-1-yl)-1-(9H-carbazol-9-yl)hexan-1-one hydrochloride], the inhibition constant Ki in experiment [1] worked out at 73 nM. Besides, the inhibition at 10 µM in experiment [1] was determined as 94.1%; at 5-HT2C, 63.7%; at 5-HT6 it was 81.3%; on 5-HT1A, 80.5%. The “protein leakage vs reference value” in the experiment on Rats is reported as “suppressed to a level close to the reference value”.
For the molecule `O=C(CCCCCN1CCN(c2ccccc2O)CC1)n1c2ccccc2c2ccccc21` [Example 2.15, 1-(9H-carbazol-9-yl)-6-(4-(2-hydroxyphenyl)piperazin-1-yl)hexan-1-one], in experiment [1], the Ki is 38 nM. The inhibition at 10 µM amounted to 100% in experiment [1], 73.5% on 5-HT2C, 85.3% on 5-HT6 and 94.2% on 5-HT1A. Also, in the experiment on Rats, the “protein leakage vs reference value” is “suppressed to a level close to the reference value”.
Turning to `CN(CCCCC(=O)n1c2ccccc2c2ccccc21)Cc1ccccc1` [Example 2.18, 5-(Benzyl(methyl)amino)-1-(9H-carbazol-9-yl)pentan-1-one hydrochloride], the inhibitory constant (Ki) in experiment [1] amounted to 513 nM. Besides, the inhibition at 10 µM in experiment [1] was 83.1%; against 5-HT1E, -22.5%; at 5-HT2C, 32.6%.
As to `O=C(CCCCN1CCCC1)n1c2ccccc2c2ccccc21` [Example 2.19, 1-(9H-carbazol-9-yl)-5-(pyrrolidin-1-yl)pentan-1-one hydrochloride], the Ki in experiment [1] was 2160 nM. Moreover, the inhibition at 10 µM in experiment [1] was determined as 57.4%; against 5-HT1E it was 16.3%; at 5-HT2C, 45%.
As to `CC1CCN(CCCCC(=O)n2c3ccccc3c3ccccc32)CC1` [Example 2.20, 1-(9H-carbazol-9-yl)-5-(4-methylpiperidin-1-yl)pentan-1-one hydrochloride], the inhibition constant (Ki) in experiment [1] was 592 nM. Besides, the inhibition at 10 µM is 80.2% in experiment [1], -19.3% against 5-HT1E and 44.4% at 5-HT2C.
Consider `CC1CCCN(CCCCC(=O)n2c3ccccc3c3ccccc32)C1` (centres unmarked) [Example 2.21, 1-(9H-carbazol-9-yl)-5-(3-methylpiperidin-1-yl)pentan-1-one hydrochloride], for which, in experiment [1], the inhibition constant (Ki) is 883 nM. In addition, the inhibition at 10 µM in experiment [1] was 69.4%; against 5-HT1E, -6%; on 5-HT2C, 50%.
On to `CC1CC(C)CN(CCCCC(=O)n2c3ccccc3c3ccccc32)C1` (centres unmarked) [Example 2.22, 1-(9H-carbazol-9-yl)-5-(3,5-dimethylpiperidin-1-yl)pentan-1-one hydrochloride], for which the inhibition constant Ki in experiment [1] was 1400 nM; on 5-HT2C, 852 nM. Moreover, the results for the inhibition at 10 µM (in experiment [1]; against 5-HT1E; on 5-HT2C) were 67.6%, -10.5% and 52.1%, respectively.
`O=C(CCCCN1CCCCCC1)n1c2ccccc2c2ccccc21` [Example 2.23, 5-(Azepan-1-yl)-1-(9H-carbazol-9-yl)pentan-1-one hydrochloride]: the Ki was 949 nM in experiment [1] and 1090 nM at 5-HT2C. Besides, the inhibition at 10 µM in experiment [1] was 77%; on 5-HT1E, -11.7%; at 5-HT2C, 55%.
Take `COc1ccccc1N1CCN(CCCCC(=O)n2c3ccccc3c3ccccc32)CC1` [Example 2.31, 1-(9H-carbazol-9-yl)-5-(4-(2-methoxyphenyl)piperazin-1-yl)pentan-1-one hydrochloride]: in experiment [1], the Ki stood at 30 nM. The inhibition at 10 µM in experiment [1] came to 99.6%; at 5-HT2C it was 62.6%; on 5-HT6, 44.4%; against 5-HT1A, 103%. The “protein leakage vs reference value” in the experiment on Rats was “suppressed to a level close to the reference value”.
In the case of `CCCCN(C)CCCCCCn1c2ccccc2c2ccccc21` [Example 2.35, N-Butyl-6-(9H-carbazol-9-yl)-N-methylhexane-1-amine], the Ki in experiment [1] worked out at 511 nM. Besides, the values for the inhibition at 10 µM (in experiment [1]; at 5-HT1E; at 5-HT2C) were 70.7%, 55.7% and 59.4%, respectively.
Turning to `Oc1ccccc1N1CCN(CCCCn2c3ccccc3c3ccccc32)CC1` [Example 2.55, 2-(4-(4-(9H-carbazol-9-yl)butyl)piperazin-1-yl)phenol], the inhibition constant (Ki) in experiment [1] was 55 nM. For the same molecule, the inhibition at 10 µM in experiment [1] came to 95.8%; on 5-HT6, 77.8%; against 5-HT1A, 103%. Further, in the experiment on Rats, the “protein leakage vs reference value” was “suppressed to a level close to the reference value”.
Regarding `CC1CCN(CC[C@H]2CCCN2S(=O)(=O)c2cccc(O)c2)CC1` [SB-269970, reference compound], in the experiment with Rats (intraperitoneal, 10 mg/kg), the “amount of the proteins leaked (meningeal fluorescence intensity)” value was “reduced the amount of the proteins leaked”. For the same molecule, the “amount of the proteins leaked (meningeal fluorescence intensity) vs reference value” in the experiment with Rats (intraperitoneal, 30 mg/kg) is reported as “not lowered down to the reference value”.

A word on the inhibition: it is the drop in the measured response relative to a control, in per cent. As a reminder, the Ki is the dissociation constant of the complex between target and ligand, obtained from inhibition or displacement.
